One series concerns E. faecalis ATCC 29212. As to the kind of experiment: Broth microdilution MIC/MBC. Conditions: Enterococcus faecalis, ATCC29212, 24 h. A general note: Dilution methods test growth across graded concentrations, often in twofold steps.
For another series, the system named is TK– VZV 07-1 strain. As to the kind of experiment: microbe, parasite or virus in culture. Conditions: Human alphaherpesvirus 3, HEL, read-out: Antiviral Activity EC50 TK– VZV Strain (07-1). Type of series: cell-based, varicella-zoster virus.
The test system of series [1] is human embryonic lung (HEL) cells. The settings on record: minimum cytotoxic concentration causing microscopically detectable alteration of cell morphology.
A further series relates to C. albicans ATCC 10241. The series can be described thus: Broth microdilution MIC/MBC (antifungal). The settings on record: Candida albicans, ATCC10241, read-out: MIC = MBC.
The test system of the next series is E. coli ATCC 25922. The series can be described thus: Broth microdilution MIC/MBC. The settings on record: Escherichia coli, ATCC25922, 24 h, read-out: MIC = MBC.
The test system of another series is P. aeruginosa ATCC 27853. The series can be described thus: Broth microdilution MIC/MBC. Conditions: Pseudomonas aeruginosa, ATCC27853, 24 h, read-out: MIC = MBC.
A further series has as its system S. aureus ATCC 2593. The series can be described thus: Broth microdilution MIC/MBC. Conditions: Staphylococcus aureus, ATCC2593, 24 h, read-out: MIC = MBC.
The test system of another series is TK+ VZV OKA strain. The series can be described thus: microbe, parasite or virus in culture. The settings on record: Human alphaherpesvirus 3, HEL, read-out: Antiviral Activity EC50 TK+ VZV Strain (OKA). Type of series: cell-based, varicella-zoster virus.
The test system of series [2] is A. brasiliensis ATCC 16404. As to the kind of experiment: Broth microdilution MIC/MBC (antifungal). The settings on record: Aspergillus brasiliensis, ATCC16404, 72 h, read-out: MIC = MBC.
For a further series, the system named is B. cereus PCM 1948. The series can be described thus: Broth microdilution MIC/MBC. Conditions: Bacillus cereus.
The test system of series [3] is Salmonella typhimurium TA98, TA100, TA1535 and TA1537 and Escherichia coli WP2 uvrA[pKM101]. The series can be described thus: Ames mutagenicity assay (Ames MPF Penta I, bacterial reverse mutation test, with S9). The class given is cell-based. Conditions: up to 0.625 mg/mL; with Aroclor 1254-induced rat liver S9. The protocol:
The study was performed using a standard microplate Ames MPF^TM Penta I kit (Xenometrix, Allschwil, Switzerland), compliant with the OECD guideline […] [29] and the International Organization for Standardization. This test is a widely accepted short-term bacterial assay for the identification of substances that can produce genetic damage that leads to gene mutations. The bacterial strains used in this assay have various mutations that inactivate a gene involved in the synthesis of essential amino acids, either histidine (Salmonella typhimurium, TA98, TA100, TA1535 and TA1537 strains) or tryptophan (Escherichia coli, WP2uvrA[pKM101 strain), so they can only grow in the culture medium that is supplemented with that amino acid. The mutagenic potential of the sample was assessed after metabolic activation in the presence of Aroclor 1254-induced rat liver S9 (S9 Cofactor kit, Xenometrix, Allschwil, Switzerland). […]
Mutagenicity was determined using a standard microplate AMES MPF^TM PENTA I kit according to the manufacturer’s instructions (Xenometrix, Allschwil, Switzerland). […] The number of wells containing revertant colonies was counted for each dose and compared to a solvent (negative) control. […] The mutagenic potential of the sample was assessed after metabolic activation in the presence of Aroclor 1254-induced rat liver S9 (S9 Cofactor kit, Xenometrix, Allschwil, Switzerland). […]
In general terms: The Ames test uses bacterial strains that need an amino acid and regain growth without it when mutated back.

The subject of series [4] is varicella-zoster virus (VZV). More on the design: method as in PMID 24906510, PMID 28763115, PMID 24219992. The settings on record: read-out: EC50 inhibition of replication of varicella-zoster virus (VZV); cited from earlier work.
The next series has as its system adenovirus-2. More on the design: method as in PMID 28763115. The settings on record: read-out: EC50 towards adenovirus-2; cited from earlier work.
The test system of a further series is feline herpes viruses. More on the design: method as in PMID 24906510, PMID 28763115, PMID 24219992. Conditions: read-out: EC50 toward feline herpes viruses; cited from earlier work.

SMILES strings stand for the structures. In brackets after ≈: the same amount, converted by molar mass. Where two headings read alike, the source gives them in different places.

`CCOP(=O)(OCC)[C@H]1C[C@H](Cn2c(=O)c3ccccc3n(Cc3cccc(F)c3)c2=O)ON1C` (relative stereo) [Diethyl trans-(5-((1-(3-fluorobenzyl)-2,4-dioxo-1,4-dihydroquinazolin-3(2H)-yl)methyl)-2-methylisoxazolidin-3-yl)phosphonate] came in with an MBC in the series on E. faecalis ATCC 29212 greater than 5000 µg/mL. The MIC against E. faecalis ATCC 29212 was greater than 5000 µg/mL; with C. albicans ATCC 10241, 2500 µg/mL (≈ 4.95 mM); in the series with E. coli ATCC 25922 it was 2500 µg/mL (≈ 4.95 mM); with P. aeruginosa ATCC 27853, 2500 µg/mL (≈ 4.95 mM); in the series with S. aureus ATCC 2593, 5000 µg/mL (≈ 9.89 mM); in series [2], 5000 µg/mL (≈ 9.89 mM). In addition, the MIC in the series on B. cereus PCM 1948 (PCM1948) came out at 625 µg/mL (≈ 1.24 mM); in the series with B. cereus PCM 1948 (PCM1948, 24 h, read-out: MIC = MBC) it was 625 µg/mL (≈ 1.24 mM). In addition, the EC50 with TK– VZV 07-1 strain was 58.5 µM; in the series on TK+ VZV OKA strain, 100 µM. For the same compound, the “Cytotoxicity Cell Morphology MCC” value in series [1] was greater than 100 μM. The “Mutagenicity (Ames test)” value in series [3] is “not being mutagenic”.
Take `O=C(c1ccc(F)cc1)n1c(=O)c2ccccc2n(Cc2cn(CCCOCc3ccccc3)nn2)c1=O` [6a]: the EC50 in series [4] is 6.8 to 8.2 µM.
For `C#CCn1c(=O)n(C(=O)c2ccc(F)cc2)c(=O)c2ccccc21` [compound 5], the EC50 with adenovirus-2 is 8.3 µM.
For the compound `O=C(c1ccccc1)n1c(=O)c2ccccc2n(Cc2cn(C[C@H](OCc3ccccc3)[C@H](O)P(=O)(OCc3ccccc3)OCc3ccccc3)nn2)c1=O` [compound 8], the EC50 in the series on feline herpes viruses was 24 µM.

By MBC is commonly meant the lowest tested concentration that kills the bacteria rather than only halting them. High values mean weaker bactericidal potency, low ones greater bactericidal potency. What is called MIC is the least concentration at which growth counts as inhibited. The EC50 is the concentration at which the effect is half-maximal.

These data come from article PMC9571433, “Design, Synthesis, Anti-Varicella-Zoster and Antimicrobial Activity of (Isoxazolidin-3-yl)Phosphonate Conjugates of N1-Functionalised Quinazoline-2,4-Diones” (Molecules, 2022).
